Results from the supplement of paper PMC10307832.

Columns and labels:
Assay in all cases: relative viability (nuclei count vs DMSO), 5 days (fraction); higher = more cells survive
AGI-6780 + Palbociclib = compound: O=C(Nc1cccc(C(F)(F)F)c1)Nc1cc(S(=O)(=O)NC2CC2)ccc1-c1ccsc1 [AGI-6780] + CC(=O)c1c(C)c2cnc(Nc3ccc(N4CCNCC4)cn3)nc2n(C2CCCC2)c1=O [Palbociclib] (partner 0.5 µM)
Procedure, shortened: (§1)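 After 5 days of treatment, lung cancer cells in 1536-well plates were fixed and stained in a single step (final 0.05% Triton X-100, 1% formaldehyde, 1 ug/ml Hoechst) and their nuclei counted on 4× images. Treatment had been applied by pin tool the day after seeding as one drug alone or as a fixed anchor-drug dose with five library-drug doses (not always all listed) in √10 steps. Relative viability is the nuclei count of treated wells divided by that of vehicle wells, and values are medians of duplicate plates.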

AGI-6780 + Alpelisib = compound: O=C(Nc1cccc(C(F)(F)F)c1)Nc1cc(S(=O)(=O)NC2CC2)ccc1-c1ccsc1 [AGI-6780] + Cc1nc(NC(=O)N2CCC[C@H]2C(N)=O)sc1-c1ccnc(C(C)(C)C(F)(F)F)c1 [Alpelisib] (partner 2 µM)
Procedure, shortened: as §1

AGI-6780 + Pemetrexed = compound: O=C(Nc1cccc(C(F)(F)F)c1)Nc1cc(S(=O)(=O)NC2CC2)ccc1-c1ccsc1 [AGI-6780] + Nc1nc2[nH]cc(CCc3ccc(C(=O)N[C@@H](CCC(=O)O)C(=O)O)cc3)c2c(=O)[nH]1 [Pemetrexed] (partner 0.2 µM)
Procedure, shortened: as §1

AGI-6780 + Olaparib = compound: O=C(Nc1cccc(C(F)(F)F)c1)Nc1cc(S(=O)(=O)NC2CC2)ccc1-c1ccsc1 [AGI-6780] + O=C(c1cc(Cc2n[nH]c(=O)c3ccccc23)ccc1F)N1CCN(C(=O)C2CC2)CC1 [Olaparib] (partner 8 µM)
Procedure, shortened: as §1

Cell Line | relative viability (AGI-6780 + Palbociclib; first compound 0.08 µM) | relative viability (AGI-6780 + Palbociclib; first compound 0.253 µM) | relative viability (AGI-6780 + Palbociclib; first compound 0.8 µM) | relative viability (AGI-6780 + Palbociclib; first compound 2.53 µM) | relative viability (AGI-6780 + Palbociclib; first compound 8 µM) | relative viability (AGI-6780 + Alpelisib; first compound 0.08 µM) | relative viability (AGI-6780 + Alpelisib; first compound 0.253 µM) | relative viability (AGI-6780 + Alpelisib; first compound 0.8 µM) | relative viability (AGI-6780 + Alpelisib; first compound 2.53 µM) | relative viability (AGI-6780 + Alpelisib; first compound 8 µM) | relative viability (AGI-6780 + Pemetrexed; first compound 0.08 µM) | relative viability (AGI-6780 + Pemetrexed; first compound 0.253 µM) | relative viability (AGI-6780 + Pemetrexed; first compound 0.8 µM) | relative viability (AGI-6780 + Pemetrexed; first compound 2.53 µM) | relative viability (AGI-6780 + Pemetrexed; first compound 8 µM) | relative viability (AGI-6780 + Olaparib; first compound 0.08 µM) | relative viability (AGI-6780 + Olaparib; first compound 0.253 µM) | relative viability (AGI-6780 + Olaparib; first compound 0.8 µM) | relative viability (AGI-6780 + Olaparib; first compound 2.53 µM) | relative viability (AGI-6780 + Olaparib; first compound 8 µM)
LXF-289 | 0.606 | 0.65 | 0.586 | 0.586 | 0.6 | 1.03 | 1.04 | 1.07 | 1.09 | 1.03 | 0.912 | 0.763 | 0.964 | 1.04 | 0.919 | 1.07 | 1.02 | 1.08 | 1.06 | 1.03
NCI-H23 | 0.437 | 0.528 | 0.457 | 0.394 | 0.541 | 0.971 | 0.745 | 0.811 | 0.473 | 0.791 | 0.568 | 0.733 | 0.758 | 0.787 | 0.799 | 0.302 | 0.271 | 0.288 | 0.354 | 0.349
NCI-H322M | – | 0.516 | 0.446 | 0.434 | 0.499 | 0.902 | 0.917 | 0.88 | 0.906 | 0.827 | – | 0.669 | 0.622 | 0.636 | 0.585 | – | 0.773 | 0.744 | 0.747 | 0.874
NCI-H358 | 0.129 | 0.131 | 0.119 | 0.138 | 0.154 | 0.896 | 0.906 | 0.835 | 0.63 | 0.721 | 0.145 | 0.182 | 0.148 | 0.173 | 0.166 | 0.692 | 0.64 | 0.834 | 0.452 | 0.636
NCI-H441 | 0.248 | 0.259 | 0.232 | 0.195 | 0.263 | 0.885 | 0.783 | 0.713 | 0.382 | 0.646 | 0.288 | 0.241 | 0.236 | 0.25 | 0.248 | 0.627 | 0.525 | 0.624 | 0.441 | 0.453
NCI-H460 | 0.145 | 0.211 | 0.144 | 0.136 | 0.15 | 0.536 | 0.458 | 0.514 | 0.327 | 0.568 | 0.0559 | 0.0709 | 0.0574 | 0.0584 | 0.0641 | 0.413 | 0.444 | 0.487 | 0.291 | 0.447
NCI-H520 | 0.208 | 0.25 | 0.232 | 0.235 | 0.207 | 1.05 | 1.08 | 0.959 | 0.732 | 0.922 | 0.803 | 0.625 | 0.669 | 0.586 | 0.637 | 0.33 | 0.376 | 0.31 | 0.322 | 0.331
NCI-H647 | 0.416 | 0.36 | 0.48 | 0.332 | 0.422 | 1.19 | 1.16 | 1.24 | 1.06 | 1.13 | 0.173 | 0.192 | 0.119 | 0.2 | 0.178 | 0.622 | 0.579 | 0.705 | 0.479 | 0.488
NCI-H650 | 0.34 | 0.3 | 0.258 | 0.333 | 0.334 | 1.15 | 0.956 | 1.15 | 0.855 | 1.26 | 0.935 | 0.943 | 0.993 | 0.893 | 0.945 | 0.349 | 0.413 | 0.437 | 0.303 | 0.388
NCI-H661 | 0.418 | 0.41 | 0.411 | 0.371 | 0.432 | 0.483 | 0.713 | 0.791 | 0.51 | 0.59 | 0.909 | 0.956 | 0.967 | 0.969 | 0.905 | 0.782 | 0.754 | 0.768 | 0.719 | 0.726
NCI-H838 | 0.252 | 0.267 | 0.221 | 0.218 | 0.224 | 1.05 | 0.927 | 1.01 | 0.825 | 0.959 | 0.258 | 0.251 | 0.249 | 0.23 | 0.225 | 0.844 | 0.771 | 0.836 | 0.712 | 0.735
NCI-H1355 | 0.432 | 0.409 | 0.408 | 0.354 | 0.342 | 0.98 | 0.894 | 0.848 | 0.696 | 0.787 | 1.07 | 1.17 | 1.02 | 0.937 | 1 | 0.838 | 0.791 | 0.773 | 0.65 | 0.71
NCI-H1395 | 0.629 | 0.603 | 0.616 | 0.572 | 0.656 | 1.14 | 1.15 | 1.23 | – | 0.969 | 0.779 | 0.975 | 0.945 | 0.729 | 0.843 | 0.474 | 0.475 | 0.474 | 0.424 | 0.439
NCI-H1437 | 0.296 | 0.365 | 0.25 | 0.347 | 0.322 | 1.07 | 0.888 | 1.04 | 0.882 | 0.885 | 0.338 | 0.309 | 0.356 | 0.346 | 0.314 | 0.677 | 0.638 | 0.639 | 0.63 | 0.572
NCI-H1651 | 0.522 | 0.538 | 0.534 | 0.466 | 0.547 | 0.9 | 0.963 | 0.931 | 0.736 | 0.886 | 0.542 | 0.643 | 0.633 | 0.556 | 0.623 | 0.187 | 0.181 | 0.169 | 0.169 | 0.18
NCI-H1666 | 0.605 | 0.679 | 0.616 | 0.601 | 0.601 | 1.08 | 0.876 | 1.01 | – | 0.927 | 0.9 | 1.02 | 0.847 | 1.02 | 0.863 | 0.703 | 0.714 | 0.734 | 0.766 | 0.75
